Test results as given in ChEMBL document CHEMBL1156365, “Polyacetylene carboxylic acids from Mitrephora celebica” (2001).
Values after ≈ are worked out from the molar mass of the structure shown.

Key:
Staphylococcus aureus = experiment: Antibacterial activity against methicillin-resistant Staphylococcus aureus by NCCLS M7-A4 method; type: functional
[1] = system: Mycolicibacterium smegmatis; experiment: Antibacterial activity against Mycobacterium smegmatis; type: functional

C=CCC/C=C/C#CC#CCCCCCCCC(=O)O
MIC (Staphylococcus aureus): 25 µg/mL (≈ 91.8 µM) | MIC [1]: 12.5 µg/mL (≈ 45.9 µM)

NNC(=O)c1ccncc1 [ISONIAZID]
MIC [1]: 0.8 µg/mL (≈ 5.83 µM)

C=CCCC#CC#CC#CCCCCCCCC(=O)O [OROPHEIC ACID]
MIC (Staphylococcus aureus): 12.5 µg/mL (≈ 46.2 µM) | MIC [1]: 12.5 µg/mL (≈ 46.2 µM)

CN[C@H](CC(C)C)C(=O)N[C@H]1C(=O)N[C@@H](CC(N)=O)C(=O)N[C@H]2C(=O)N[C@H]3C(=O)N[C@H](C(=O)N[C@H](C(=O)O)c4cc(O)cc(O)c4-c4cc3ccc4O)[C@H](O)c3ccc(c(Cl)c3)Oc3cc2cc(c3O[C@@H]2O[C@H](CO)[C@@H](O)[C@H](O)[C@H]2O[C@H]2C[C@](C)(N)[C@H](O)[C@H](C)O2)Oc2ccc(cc2Cl)[C@H]1O [VANCOMYCIN]
MIC (Staphylococcus aureus): 0.8 µg/mL (≈ 0.552 µM)
